These results are taken from patent US12534474B2, “Dihydrofuropyridine derivatives as rho-kinase inhibitors” (CHIESI FARMACEUTICI S.P.A., priority 2020, dated 2026).

Common to all, as to format: biochemical
Assay [1] has as its target T1, ROCK2 (Homo sapiens, UniProt O75116). Briefly: In vitro Rho kinase inhibitory activity assay, ADP-Glo, Method A (ATP 10 μM). The settings on record: read-out: Method A ROCK 2 (Ki). On the procedure:
(§1) In Vitro Inhibitory Activity Assay Description (Method A)
(§2) The effectiveness of compounds of the present invention to inhibit Rho kinase activity can be determined in a 10 μL assay containing 40 mM Tris pH7.5, 20 mM MgCl2 0.1 mg/mL BSA, 50 μM DTT and 2.5 μM peptide substrate (Myelin Basic Protein) using an ADP-Glo kit (Promega). Compounds were dissolved in DMSO such that the final concentration of DMSO was 1% in the assay. All reactions/incubations are performed at 25° C. Compound (2 μL) and either Rho kinase 1 or 2 (4 μL) were mixed and incubated for 30 min. Reactions were initiated by addition of ATP (4 μL) such that the final concentration of ATP in the assay was 10 μM. After a 1 hour incubation 10 μL of ADP-Glo Reagent was added and after a further 45 minute incubation 20 μL of Kinase Detection Buffer was added and the mixture incubated for a further 30 minutes. The luminescent signal was measured on a luminometer. […] Compounds were tested in dose-response format and the inhibition of kinase activity was calculated at each concentration of compound. To determine the IC50 (concentration of compound required to inhibit 50% of the enzyme activity) data were fit to a plot of % inhibition vs Log10 compound concentration using a sigmoidal fit with a variable slope and fixing the maximum to 100% and the minimum to 0%. To determine the Ki values the Cheng-Prusoff equation was utilized (Ki=IC50/(1+[S]/Km).
(In ADP-Glo the light output rises with the ADP produced.)

Assay [2] deals with T2, ROCK1 (Homo sapiens, UniProt Q13464). The description is as above. The conditions noted are these: read-out: Method A ROCK 1 (Ki). On the procedure:
as §1, §2

The next assay addresses PKA (Homo sapiens, UniProt P17612). Briefly: In vitro inhibitory activity assay for PKA, ADP-Glo, reported as selectivity ratio vs ROCK2. The conditions noted are these: Ki for PKA divided by Ki of ROCK2 (Method B). On the procedure:
In Vitro Inhibitory Activity Assay Description for PKA
The effectiveness of compounds of the present invention to inhibit PKA activity can be determined in a 10 μL assay containing 40 mM Tris pH7.5, 20 mM MgCl2 0.1 mg/mL BSA, 50 μM DTT and 260 μM peptide substrate (kemptide) using an ADP-Glo kit (Promega). Compounds were dissolved in DMSO such that the final concentration of DMSO was 1% in the assay. All reactions/incubations are performed at 25° C. Compound and PKA enzyme (6 μL) were mixed and incubated for 30 min. Reactions were initiated by addition of ATP (4 μL) such that the final concentration of ATP in the assay was 10 μM. After a 30 minute incubation 10 μL of ADP-Glo Reagent was added and after a further 1 hour incubation 20 μL of Kinase Detection Buffer was added and the mixture incubated for a further 45 minutes. The luminescent signal was measured on a luminometer. […] Compounds were tested in dose-response format and the inhibition of kinase activity was calculated at each concentration of compound. To determine the IC50 (concentration of compound required to inhibit 50% of the enzyme activity) data were fit to a plot of % inhibition vs Log10 compound concentration using a sigmoidal fit with a variable slope and fixing the maximum to 100% and the minimum to 0%. To determine the Ki values the Cheng-Prusoff equation was utilized (Ki=IC50/(1+[S]/Km).
In vitro inhibitory activities for PKA were reported as selectivity ratio vs. ROCK2. Selectivity ratio PKA/ROCK2 was calculated by dividing the Ki value for PKA by Ki value of ROCK2 (Method B) and reported into table 1.

For assay [3], the target named is T1, ROCK2. Nature of the assay: In vitro Rho kinase inhibitory activity assay, ADP-Glo, Method B (ATP 200 μM). The settings on record: read-out: Method B ROCK 2 (Ki). The method, then:
(§3) In Vitro Inhibitory Activity Assay Description (Method B)
as §2, with “(2 ul)” for “(2 μL)”, “was 200” for “was 10”, “20 ul” for “20 μL”, “vs Log 10” for “vs Log10”

Assay [4] addresses T2, ROCK1. The description is as above. The conditions noted are these: read-out: Method B ROCK 1 (Ki). On the procedure: as §3
as §2, with “(2 ul)” for “(2 μL)”, “was 200” for “was 10”, “20 ul” for “20 μL”, “vs Log 10” for “vs Log10”

As usually defined, the Ki is a dissociation constant, usually derived from enzyme kinetics or from competition with a known ligand.

T2 sequence (Q13464 whole entry): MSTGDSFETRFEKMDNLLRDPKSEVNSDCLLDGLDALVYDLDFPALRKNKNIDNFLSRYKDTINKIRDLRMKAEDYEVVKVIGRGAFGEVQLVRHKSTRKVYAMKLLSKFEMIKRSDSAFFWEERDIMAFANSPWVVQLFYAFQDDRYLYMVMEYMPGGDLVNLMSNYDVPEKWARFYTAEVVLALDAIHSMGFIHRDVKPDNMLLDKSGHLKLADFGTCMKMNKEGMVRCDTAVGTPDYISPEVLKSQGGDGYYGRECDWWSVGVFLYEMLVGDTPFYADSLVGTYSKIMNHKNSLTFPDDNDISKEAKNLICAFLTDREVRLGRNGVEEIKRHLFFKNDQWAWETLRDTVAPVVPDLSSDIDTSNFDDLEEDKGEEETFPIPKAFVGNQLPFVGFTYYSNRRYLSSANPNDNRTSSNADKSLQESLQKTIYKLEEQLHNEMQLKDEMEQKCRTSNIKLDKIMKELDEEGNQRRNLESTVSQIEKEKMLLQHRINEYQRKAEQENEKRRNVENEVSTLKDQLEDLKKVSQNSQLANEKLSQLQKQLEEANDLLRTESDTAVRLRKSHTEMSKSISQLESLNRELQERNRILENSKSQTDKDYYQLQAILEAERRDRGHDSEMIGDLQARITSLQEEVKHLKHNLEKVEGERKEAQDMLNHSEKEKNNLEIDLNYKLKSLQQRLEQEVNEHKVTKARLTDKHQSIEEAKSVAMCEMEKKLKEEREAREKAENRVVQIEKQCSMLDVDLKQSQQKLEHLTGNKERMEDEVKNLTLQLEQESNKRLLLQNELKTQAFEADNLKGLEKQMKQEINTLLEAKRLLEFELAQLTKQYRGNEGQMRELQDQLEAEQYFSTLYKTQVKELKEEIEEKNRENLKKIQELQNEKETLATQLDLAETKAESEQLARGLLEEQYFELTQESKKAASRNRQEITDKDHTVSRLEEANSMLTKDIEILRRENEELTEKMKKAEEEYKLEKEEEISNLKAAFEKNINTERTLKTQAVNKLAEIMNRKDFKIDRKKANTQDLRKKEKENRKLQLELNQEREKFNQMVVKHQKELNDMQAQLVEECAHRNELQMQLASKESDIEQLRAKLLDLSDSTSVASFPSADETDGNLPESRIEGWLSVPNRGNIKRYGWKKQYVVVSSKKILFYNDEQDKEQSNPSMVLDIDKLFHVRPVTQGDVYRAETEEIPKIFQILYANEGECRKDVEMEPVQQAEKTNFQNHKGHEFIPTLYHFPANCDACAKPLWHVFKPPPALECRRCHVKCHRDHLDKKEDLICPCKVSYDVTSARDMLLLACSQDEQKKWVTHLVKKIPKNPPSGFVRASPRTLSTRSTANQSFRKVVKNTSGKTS
T1 sequence (O75116 whole entry): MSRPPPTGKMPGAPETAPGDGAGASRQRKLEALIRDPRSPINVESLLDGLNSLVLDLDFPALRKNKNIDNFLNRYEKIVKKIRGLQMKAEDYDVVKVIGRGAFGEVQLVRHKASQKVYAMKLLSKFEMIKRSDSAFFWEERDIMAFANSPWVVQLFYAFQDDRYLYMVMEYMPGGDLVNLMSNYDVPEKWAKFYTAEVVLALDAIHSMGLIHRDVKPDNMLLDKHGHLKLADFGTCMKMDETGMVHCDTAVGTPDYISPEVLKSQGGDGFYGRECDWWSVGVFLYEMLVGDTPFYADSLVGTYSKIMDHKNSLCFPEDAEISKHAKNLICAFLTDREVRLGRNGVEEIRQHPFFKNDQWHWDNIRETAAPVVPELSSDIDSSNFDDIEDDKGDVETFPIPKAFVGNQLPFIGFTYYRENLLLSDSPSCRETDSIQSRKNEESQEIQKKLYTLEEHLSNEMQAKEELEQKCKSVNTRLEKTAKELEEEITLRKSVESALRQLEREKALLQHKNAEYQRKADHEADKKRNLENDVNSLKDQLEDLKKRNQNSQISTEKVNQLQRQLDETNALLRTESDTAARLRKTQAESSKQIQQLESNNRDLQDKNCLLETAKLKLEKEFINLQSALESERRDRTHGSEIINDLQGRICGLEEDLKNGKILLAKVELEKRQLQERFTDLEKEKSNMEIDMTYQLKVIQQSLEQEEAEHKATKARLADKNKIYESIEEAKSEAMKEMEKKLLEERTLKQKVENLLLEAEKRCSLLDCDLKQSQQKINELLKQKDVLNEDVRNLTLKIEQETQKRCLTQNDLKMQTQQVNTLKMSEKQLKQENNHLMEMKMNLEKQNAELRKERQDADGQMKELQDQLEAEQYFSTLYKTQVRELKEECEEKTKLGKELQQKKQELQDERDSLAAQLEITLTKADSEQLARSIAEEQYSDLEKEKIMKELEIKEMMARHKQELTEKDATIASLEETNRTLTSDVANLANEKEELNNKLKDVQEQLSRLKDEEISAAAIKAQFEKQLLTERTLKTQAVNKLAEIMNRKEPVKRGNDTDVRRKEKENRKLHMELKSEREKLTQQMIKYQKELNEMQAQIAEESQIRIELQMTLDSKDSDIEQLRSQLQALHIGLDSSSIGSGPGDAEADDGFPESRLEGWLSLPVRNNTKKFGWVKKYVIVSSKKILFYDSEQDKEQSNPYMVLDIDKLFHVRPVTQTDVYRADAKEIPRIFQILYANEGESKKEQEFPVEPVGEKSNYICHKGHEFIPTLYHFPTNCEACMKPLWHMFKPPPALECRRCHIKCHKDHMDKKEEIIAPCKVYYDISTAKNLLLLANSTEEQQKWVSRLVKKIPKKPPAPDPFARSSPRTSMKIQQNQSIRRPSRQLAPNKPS

For `CN(C)Cc1cccc(CNC(=O)c2cccc(CNc3ncc(-c4ccncc4)c4c3CCO4)c2)c1` [Example 27, N-(3-((dimethylamino)methyl)benzyl)-3-(((7-(pyridin-4-yl)-2,3-dihydrofuro[3,2-c]pyridin-4-yl)amino)methyl)benzamide], the Ki on ROCK2 [1] and on ROCK1 [2] was at most 3 nM throughout.
`O=C(NCCc1ccncc1)c1cccc(CNc2ncc(-c3ccncc3)c3c2CCO3)c1` [Example 25, 3-(((7-(Pyridin-4-yl)-2,3-dihydrofuro[3,2-c]pyridin-4-yl)amino)methyl)-N-(2-(pyridin-4-yl)ethyl)benzamide]: the Ki on ROCK2 [1] and on ROCK1 [2] was at most 3 nM each time.
Turning to `O=C(Nc1cccc(CNc2ncc(-c3ccncc3)c3c2CCO3)c1)c1cccc(CN2CCOCC2)c1` [Example 33, 3-(morpholinomethyl)-N-(3-(((7-(pyridin-4-yl)-2,3-dihydrofuro[3,2-c]pyridin-4-yl)amino)methyl)phenyl)benzamide], the Ki at ROCK2 [1] and on ROCK1 [2] was 3 to 30 nM in each case.
On to `CN(C)CCn1ccc2cc(C(=O)Nc3cccc(CNc4ncc(-c5ccncc5)c5c4CCO5)c3)ccc21` [Example 39, 1-(2-(dimethylamino)ethyl)-N-(3-(((7-(pyridin-4-yl)-2,3-dihydrofuro[3,2-c]pyridin-4-yl)amino)methyl)phenyl)-1H-indole-5-carboxamide], for which the Ki at ROCK2 [1] and at ROCK1 [2] was at most 3 nM in each case.
Take `CN1CCc2nc(C(=O)Nc3cccc(CNc4ncc(-c5ccncc5)c5c4CCO5)c3)sc2C1` [Example 34, 5-methyl-N-(3-(((7-(pyridin-4-yl)-2,3-dihydrofuro[3,2-c]pyridin-4-yl)amino)methyl)phenyl)-4,5,6,7-tetrahydrothiazolo[5,4-c]pyridine-2-carboxamide]: the Ki on ROCK2 [1] and at ROCK1 [2] was at most 3 nM in each case.
With `CN1CCc2nc(NC(=O)c3ccnc(CNc4ncc(-c5ccncc5)c5c4CCO5)c3)sc2C1` [Example 51, N-(5-methyl-4,5,6,7-tetrahydrothiazolo[5,4-c]pyridin-2-yl)-2-(((7-(pyridin-4-yl)-2,3-dihydrofuro[3,2-c]pyridin-4-yl)amino)methyl)isonicotinamide], the Ki on ROCK2 [1] is at most 3 nM; on ROCK1 [2], 3 to 30 nM.
For `CC1CCN(CCC(=O)Nc2cccc(CNc3ncc(-c4ccncc4)c4c3CCO4)c2)CC1` [Example 32, 3-(4-Methylpiperidin-1-yl)-N-(3-(((7-(pyridin-4-yl)-2,3-dihydrofuro[3,2-c]pyridin-4-yl)amino)methyl)phenyl)propanamide], the Ki at ROCK2 [1] and at ROCK1 [2] was 3 to 30 nM in each case.
Take `CN1CCOC(CNC(=O)c2cccc(CNc3ncc(-c4ccncc4)c4c3CCO4)c2)C1` (centres unmarked) [Example 10, N-((4-methylmorpholin-2-yl)methyl)-3-(((7-(pyridin-4-yl)-2,3-dihydrofuro[3,2-c]pyridin-4-yl)amino)methyl)benzamide]: the “Ratio (PKA/ROCK2)” value at PKA was “*** (ratio≥10)”. Moreover, the Ki on ROCK2 [3] and on ROCK1 [4] was at most 3 nM throughout.
As to `O=C(Nc1ccncn1)c1cccc(CNc2ncc(-c3ccncc3)c3c2CCO3)c1` [Example 18, 3-(((7-(pyridin-4-yl)-2,3-dihydrofuro[3,2-c]pyridin-4-yl)amino)methyl)-N-(pyrimidin-4-yl)benzamide], the “Ratio (PKA/ROCK2)” value at PKA is on record as “*** (ratio≥10)”. Besides, the Ki at ROCK2 [3] and on ROCK1 [4] was at most 3 nM each time.
For `O=C(NCc1cocn1)c1cccc(CNc2ncc(-c3ccncc3)c3c2CCO3)c1` [Example 8, N-(oxazol-4-ylmethyl)-3-(((7-(pyridin-4-yl)-2,3-dihydrofuro[3,2-c]pyridin-4-yl)amino)methyl)benzamide], on PKA, the “Ratio (PKA/ROCK2)” value was “*** (ratio≥10)”. Moreover, the results for the inhibition constant (Ki) at ROCK2 [3] and on ROCK1 [4] were at most 3 nM and 3 to 30 nM, respectively.
Take `O=C(Nc1ccncc1)c1cccc(CNc2ncc(-c3ccncc3)c3c2CCO3)c1` [Example 11, N-(pyridin-4-yl)-3-(((7-(pyridin-4-yl)-2,3-dihydrofuro[3,2-c]pyridin-4-yl)amino)methyl)benzamide]: the “Ratio (PKA/ROCK2)” value on PKA is “*** (ratio≥10)”. The Ki on ROCK2 [3] and on ROCK1 [4] was at most 3 nM throughout.
Consider `CC(=O)N1CCC(CCNC(=O)c2cccc(CNc3ncc(-c4ccncc4)c4c3CCO4)c2)CC1` [Example 44, N-(2-(1-Acetylpiperidin-4-yl)ethyl)-3-(((7-(pyridin-4-yl)-2,3-dihydrofuro[3,2-c]pyridin-4-yl)amino)methyl)benzamide], for which, on PKA, the “Ratio (PKA/ROCK2)” value is reported as “*** (ratio≥10)”. For the same compound, the inhibition constant (Ki) on ROCK2 [3] and at ROCK1 [4] was at most 3 nM in each case.
Turning to `O=C(NCC1CC1)c1cccc(CNc2ncc(-c3ccncc3)c3c2CCO3)c1` [Example 12, N-(cyclopropylmethyl)-3-(((7-(pyridin-4-yl)-2,3-dihydrofuro[3,2-c]pyridin-4-yl)amino)methyl)benzamide], the “Ratio (PKA/ROCK2)” value at PKA is “** (5≤ratio<10)”. The results for the inhibition constant (Ki) on ROCK2 [3] and at ROCK1 [4] were 3 to 30 nM and at most 3 nM, respectively.
For `COc1cc(NC(=O)c2cccc(CNc3ncc(-c4ccncc4)c4c3CCO4)c2)ncn1` [Example 31, N-(6-Methoxypyrimidin-4-yl)-3-(((7-(pyridin-4-yl)-2,3-dihydrofuro[3,2-c]pyridin-4-yl)amino)methyl)benzamide], at PKA, the “Ratio (PKA/ROCK2)” value was “*** (ratio≥10)”. For the same compound, the Ki on ROCK2 [3] and on ROCK1 [4] was at most 3 nM in each case.
`CN(C)CCOc1ccc(NC(=O)c2cccc(CNc3ncc(-c4ccncc4)c4c3CCO4)c2)nc1` [Example 56, N-(5-(2-(dimethylamino)ethoxy)pyridin-2-yl)-3-(((7-(pyridin-4-yl)-2,3-dihydrofuro[3,2-c]pyridin-4-yl)amino)methyl)benzamide]: on PKA, the “Ratio (PKA/ROCK2)” value is listed as “*** (ratio≥10)”. Also, the Ki on ROCK2 [3] and at ROCK1 [4] was at most 3 nM each time.
On to `CNC(=O)c1cccc(CNc2ncc(-c3ccnc(N)c3F)c3c2CCO3)c1` [Example 46, 3-(((7-(2-Amino-3-fluoropyridin-4-yl)-2,3-dihydrofuro[3,2-c]pyridin-4-yl)amino)methyl)-N-methylbenzamide], for which, on PKA, the “Ratio (PKA/ROCK2)” value is “*** (ratio≥10)”. Also, the Ki on ROCK2 [3] and at ROCK1 [4] was 3 to 30 nM throughout.
In the case of `O=C(NC1CCOCC1)c1cccc(CNc2ncc(-c3ccncc3)c3c2CCO3)c1` [Example 7, 3-(((7-(pyridin-4-yl)-2,3-dihydrofuro[3,2-c]pyridin-4-yl)amino)methyl)-N-(tetrahydro-2H-pyran-4-yl)benzamide], the “Ratio (PKA/ROCK2)” value at PKA was “*** (ratio≥10)”. For the same compound, the Ki on ROCK2 [3] and on ROCK1 [4] was 3 to 30 nM throughout.
